Here are results for seven molecules from PubChem BioAssay (NCI).

Some test systems named below: UACC-257 melanoma; KM12 colon; SN12C renal; HT29 colon; NCI-H226 lung; NCI-H522 lung; HCT-15 colon; SR leukemia; NCI-H460 lung; TK-10 renal; RXF 393 renal; HCT-116 colon; COLO 205 colon; MCF7 breast; OVCAR-8 ovarian; MDA-MB-435; UACC-62 melanoma; MOLT-4 leukemia; SNB-75 CNS.
Test in all cases: inhibition of tumour cell growth, NCI panel, 48 h

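These data come from cells grown in 96-well plates and exposed to compound for 48 hours at five concentrations. TGI: total growth inhibition.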

With `O=C1CCc2cc3c(cc21)CC1(Cc2ccccc2C1)C3`, the TGI in the assay on UACC-257 melanoma is 65.2 µM; with KM12 colon, > 100 µM; with SN12C renal, > 100 µM; with HT29 colon it was 14.2 µM; in the assay on NCI-H226 lung, 67.7 µM; in the assay on NCI-H522 lung, > 79.9 µM. Moreover, the TGI was > 100 µM with HCT-15 colon; 5.18 µM in the assay on SR leukemia; > 100 µM in the assay with NCI-H460 lung; > 100 µM with TK-10 renal; > 76.8 µM with RXF 393 renal; > 46.3 µM in the assay with HCT-116 colon. The TGI with COLO 205 colon was 17.2 µM; with MCF7 breast, > 100 µM; with OVCAR-8 ovarian, > 100 µM; in the assay with MDA-MB-435, 5.92 µM; with UACC-62 melanoma, > 88.3 µM; in the assay on MOLT-4 leukemia, 12.7 µM. In addition, the TGI in the assay on SNB-75 CNS is > 60.8 µM.
Consider `Cc1cc(NS(=O)(=O)c2ccc(Nc3c4ccccc4nc4ccc(C(=O)Nc5ccc(S(=O)(=O)N=C(N)N)cc5)cc34)cc2)no1`, for which the TGI in the assay with UACC-257 melanoma, with KM12 colon, in the assay with SN12C renal, in the assay with HT29 colon, with NCI-H226 lung and in the assay on NCI-H522 lung was > 100 µM in each case. The TGI in the assay on HCT-15 colon, in the assay on SR leukemia, with NCI-H460 lung, with TK-10 renal, with RXF 393 renal and in the assay on HCT-116 colon was > 100 µM in each case. Further, the TGI in the assay with COLO 205 colon, in the assay with MCF7 breast, in the assay with OVCAR-8 ovarian, in the assay on MDA-MB-435, in the assay with UACC-62 melanoma and in the assay on MOLT-4 leukemia was > 100 µM each time. Further, the TGI in the assay on SNB-75 CNS is > 100 µM.
For `Cc1ncc([N+](=O)[O-])n1CCNC(=O)CCCn1cnc([N+](=O)[O-])n1`, the TGI in the assay on UACC-257 melanoma was > 100 µM; in the assay with KM12 colon it was > 100 µM; in the assay with SN12C renal, > 55.9 µM; with HT29 colon, > 100 µM; in the assay with NCI-H226 lung, > 100 µM; in the assay on NCI-H522 lung it was > 100 µM. In addition, the TGI in the assay on HCT-15 colon was > 100 µM; with SR leukemia it was > 100 µM; in the assay on NCI-H460 lung, > 100 µM; with TK-10 renal, > 69.5 µM; in the assay with RXF 393 renal, > 100 µM; in the assay with HCT-116 colon it was > 100 µM. The TGI in the assay with COLO 205 colon, with MCF7 breast, in the assay with OVCAR-8 ovarian, with MDA-MB-435, in the assay with UACC-62 melanoma and with MOLT-4 leukemia was > 100 µM throughout. Further, the TGI in the assay on SNB-75 CNS was > 100 µM.
In the case of `C=C(Br)CN(CC(=C)Br)C(C)=O`, the TGI in the assay on UACC-257 melanoma, in the assay on KM12 colon, in the assay on SN12C renal, in the assay on HT29 colon, in the assay on NCI-H226 lung and in the assay with NCI-H522 lung was > 100 µM throughout. The TGI in the assay on HCT-15 colon, in the assay with SR leukemia, with NCI-H460 lung, in the assay with TK-10 renal, with RXF 393 renal and in the assay on HCT-116 colon was > 100 µM each time. Also, the TGI in the assay on COLO 205 colon, in the assay on MCF7 breast, in the assay on OVCAR-8 ovarian, in the assay on MDA-MB-435, in the assay with UACC-62 melanoma and in the assay on MOLT-4 leukemia was > 100 µM throughout. The TGI in the assay with SNB-75 CNS was > 100 µM.
Turning to `Cc1cc(C2(c3cc(C)c(O)c(C(=O)O)c3)OS(=O)(=O)c3ccccc32)cc(C(=O)O)c1O`, the TGI in the assay on UACC-257 melanoma, in the assay with KM12 colon, in the assay with SN12C renal, with HT29 colon, in the assay with NCI-H226 lung and in the assay on NCI-H522 lung was > 100 µM throughout. In addition, the TGI in the assay with HCT-15 colon, with SR leukemia, in the assay on NCI-H460 lung, in the assay with TK-10 renal, in the assay on RXF 393 renal and in the assay with HCT-116 colon was > 100 µM in each case. For the same molecule, the TGI with COLO 205 colon, in the assay on MCF7 breast, in the assay with OVCAR-8 ovarian, in the assay with MDA-MB-435, in the assay with UACC-62 melanoma and in the assay with MOLT-4 leukemia was > 100 µM each time. In addition, the TGI in the assay on SNB-75 CNS was > 100 µM.
For `O=[N+]([O-])/C(C(Cl)=C(Cl)Cl)=C1/OCCS1`, the TGI in the assay with UACC-257 melanoma is 67.3 µM; with KM12 colon it was 94.3 µM; in the assay with SN12C renal, 43.8 µM; with HT29 colon, > 100 µM; in the assay on NCI-H226 lung, 56.1 µM; in the assay on NCI-H522 lung, 79.7 µM. In addition, the TGI in the assay on HCT-15 colon was found to be 61 µM; with SR leukemia it was 71.5 µM; in the assay on NCI-H460 lung it was 71.4 µM; in the assay on TK-10 renal, 66.4 µM; in the assay on RXF 393 renal, 41.3 µM; with HCT-116 colon, 35.2 µM. In addition, the TGI with COLO 205 colon was 36.8 µM; in the assay on MCF7 breast, > 100 µM; in the assay on OVCAR-8 ovarian, 34.4 µM; in the assay with MDA-MB-435, 47.3 µM; in the assay with UACC-62 melanoma, 61.9 µM; in the assay on MOLT-4 leukemia, 41.2 µM. This molecule also registered a TGI in the assay with SNB-75 CNS of 50.6 µM.
`O=C(CC(C(=O)c1ccsc1)c1ccccc1)c1cccs1` (stereo not drawn): the TGI in the assay on UACC-257 melanoma is > 100 µM; in the assay on KM12 colon, 88.6 µM; with SN12C renal it was > 100 µM; in the assay with HT29 colon, > 100 µM; in the assay with NCI-H226 lung, > 100 µM; in the assay with NCI-H522 lung it was > 100 µM. In addition, the TGI in the assay on HCT-15 colon, in the assay with SR leukemia, in the assay with NCI-H460 lung, in the assay with TK-10 renal, with RXF 393 renal and in the assay on HCT-116 colon was > 100 µM throughout. For the same molecule, the TGI was > 100 µM in the assay with COLO 205 colon; 79.6 µM in the assay with MCF7 breast; > 100 µM with OVCAR-8 ovarian; > 100 µM in the assay with MDA-MB-435; > 100 µM in the assay on UACC-62 melanoma; > 100 µM with MOLT-4 leukemia. The TGI with SNB-75 CNS is > 100 µM.
